pIC50: −log10 of the molar value. Activity calls are given as the source filed them. The calls are words filed in the database; no cut-off is given here.
Assays:
[1] = target: T1, Chromobox protein homolog 7 (Homo sapiens, UniProt O95931); experiment: Antagonist activity at Flag-tagged CBX7 (unknown origin) assessed as inhibition of CBX7/biotinylated H3K9Me3 peptide interaction after 30 mins by AlphaScreen assay
T1 sequence (O95931 whole entry): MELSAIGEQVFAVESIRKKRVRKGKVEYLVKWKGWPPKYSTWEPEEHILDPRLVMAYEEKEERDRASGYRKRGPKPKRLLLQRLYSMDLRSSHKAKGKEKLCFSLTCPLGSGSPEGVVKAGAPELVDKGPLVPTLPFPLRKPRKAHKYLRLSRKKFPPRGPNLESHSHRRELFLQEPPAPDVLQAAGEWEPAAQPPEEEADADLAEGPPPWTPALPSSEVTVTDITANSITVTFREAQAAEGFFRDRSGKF

[2] = target: T2, MBT domain-containing protein 1 (Homo sapiens, UniProt Q05BQ5); experiment: Antagonist activity at MBTD1 (unknown origin) assessed as inhibition of MBTD1/biotinylated H4K20Me1 peptide interaction after 30 mins by AlphaScreen assay
T2 sequence (Q05BQ5 whole entry, the tested form may be a part): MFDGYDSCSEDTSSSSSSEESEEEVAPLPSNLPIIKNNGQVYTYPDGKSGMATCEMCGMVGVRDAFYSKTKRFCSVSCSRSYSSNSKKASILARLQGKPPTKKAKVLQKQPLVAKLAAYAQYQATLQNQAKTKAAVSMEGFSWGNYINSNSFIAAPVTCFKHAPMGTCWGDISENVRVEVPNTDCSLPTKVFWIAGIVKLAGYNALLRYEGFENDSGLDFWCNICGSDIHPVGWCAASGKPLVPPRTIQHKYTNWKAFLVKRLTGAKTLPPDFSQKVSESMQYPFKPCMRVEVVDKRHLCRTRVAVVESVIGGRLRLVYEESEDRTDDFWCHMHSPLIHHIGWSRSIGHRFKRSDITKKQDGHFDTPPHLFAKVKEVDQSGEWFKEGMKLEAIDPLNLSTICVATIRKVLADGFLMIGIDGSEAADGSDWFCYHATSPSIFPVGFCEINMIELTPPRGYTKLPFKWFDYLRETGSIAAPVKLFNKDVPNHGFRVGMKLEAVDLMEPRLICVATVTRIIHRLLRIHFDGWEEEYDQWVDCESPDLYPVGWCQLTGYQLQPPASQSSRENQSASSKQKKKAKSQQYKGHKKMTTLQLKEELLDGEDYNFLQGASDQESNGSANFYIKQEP

[3] = target: T3, Chromobox protein homolog 7 (Homo sapiens) (UniProt O95931); experiment: Antagonist activity at Flag-tagged CBX7 (unknown origin) assessed as inhibition of CBX7/biotinylated H3K9Me3 peptide interaction at 30 uM after 30 mins by AlphaScreen assay
T3 sequence (whole entry): T1 sequence (O95931 whole entry)

[4] = target: T4, Lethal(3)malignant brain tumor-like protein 3 (Homo sapiens, UniProt Q96JM7); experiment: Antagonist activity at His-tagged L3MBTL3 (unknown origin) assessed as inhibition of L3MBTL3/biotinylated H4K20Me2 peptide interaction after 30 mins by AlphaScreen assay
T4 sequence (Q96JM7 whole entry): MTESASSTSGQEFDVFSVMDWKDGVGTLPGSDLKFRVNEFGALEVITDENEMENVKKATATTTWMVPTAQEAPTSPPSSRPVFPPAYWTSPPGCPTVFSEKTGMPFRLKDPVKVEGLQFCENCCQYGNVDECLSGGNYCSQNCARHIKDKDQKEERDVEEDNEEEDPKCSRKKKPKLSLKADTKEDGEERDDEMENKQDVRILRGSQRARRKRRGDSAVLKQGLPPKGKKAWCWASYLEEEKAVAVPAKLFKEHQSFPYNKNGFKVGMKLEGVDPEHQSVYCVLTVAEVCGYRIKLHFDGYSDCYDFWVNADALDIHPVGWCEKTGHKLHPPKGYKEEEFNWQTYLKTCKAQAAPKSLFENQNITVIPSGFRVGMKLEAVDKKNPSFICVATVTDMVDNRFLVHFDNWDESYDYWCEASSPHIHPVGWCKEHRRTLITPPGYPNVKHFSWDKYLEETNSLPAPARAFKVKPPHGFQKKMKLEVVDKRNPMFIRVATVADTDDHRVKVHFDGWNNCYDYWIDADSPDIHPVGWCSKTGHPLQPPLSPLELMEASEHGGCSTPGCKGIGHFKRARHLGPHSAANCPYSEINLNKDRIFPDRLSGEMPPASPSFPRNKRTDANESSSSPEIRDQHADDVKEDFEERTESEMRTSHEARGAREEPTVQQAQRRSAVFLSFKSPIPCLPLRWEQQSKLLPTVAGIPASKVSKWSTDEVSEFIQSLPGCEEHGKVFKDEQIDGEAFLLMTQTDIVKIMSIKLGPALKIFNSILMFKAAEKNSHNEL

[5] = target: T5, Lethal(3)malignant brain tumor-like protein 4 (Homo sapiens, UniProt Q8NA19); experiment: Antagonist activity at L3MBTL4 (unknown origin) assessed as inhibition of L3MBTL4/biotinylated H2AK36Me1 peptide interaction after 30 mins by AlphaScreen assay
T5 sequence (Q8NA19 whole entry): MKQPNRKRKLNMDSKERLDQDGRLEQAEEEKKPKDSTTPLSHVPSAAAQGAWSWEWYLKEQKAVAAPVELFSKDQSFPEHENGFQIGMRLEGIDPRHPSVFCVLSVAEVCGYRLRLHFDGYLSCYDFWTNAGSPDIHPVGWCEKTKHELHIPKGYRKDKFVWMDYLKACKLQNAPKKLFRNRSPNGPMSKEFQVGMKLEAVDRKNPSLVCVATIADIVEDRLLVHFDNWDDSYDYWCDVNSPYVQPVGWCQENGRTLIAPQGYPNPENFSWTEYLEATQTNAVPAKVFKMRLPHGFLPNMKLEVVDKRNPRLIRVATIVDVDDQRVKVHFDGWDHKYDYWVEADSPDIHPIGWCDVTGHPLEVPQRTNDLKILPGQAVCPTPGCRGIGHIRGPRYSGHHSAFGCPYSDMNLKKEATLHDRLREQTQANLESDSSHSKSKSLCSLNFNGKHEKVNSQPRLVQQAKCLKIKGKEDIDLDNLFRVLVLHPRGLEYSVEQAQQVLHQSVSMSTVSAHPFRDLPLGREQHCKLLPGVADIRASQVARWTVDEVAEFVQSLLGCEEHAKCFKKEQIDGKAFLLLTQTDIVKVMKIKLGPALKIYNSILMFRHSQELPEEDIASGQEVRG

[6] = target: T6, Lethal(3)malignant brain tumor-like protein 4 (Homo sapiens) (UniProt Q8NA19); experiment: Antagonist activity at L3MBTL4 (unknown origin) assessed as inhibition of L3MBTL4/biotinylated H2AK36Me1 peptide interaction at 30 uM after 30 mins by AlphaScreen assay
T6 sequence (whole entry): T5 sequence (Q8NA19 whole entry)

[7] = target: T2, MBT domain-containing protein 1; experiment: Antagonist activity at MBTD1 (unknown origin) assessed as inhibition of MBTD1/biotinylated H4K20Me1 peptide interaction at 30 uM after 30 mins by AlphaScreen assay
[8] = target: T7, Scm-like with four MBT domains protein 1 (Homo sapiens, UniProt Q9UHJ3); experiment: Antagonist activity at SFMBT1 (unknown origin) assessed as inhibition of SFMBT1/biotinylated H3K9Me1 peptide interaction after 30 mins by AlphaScreen assay
T7 sequence (Q9UHJ3 whole entry): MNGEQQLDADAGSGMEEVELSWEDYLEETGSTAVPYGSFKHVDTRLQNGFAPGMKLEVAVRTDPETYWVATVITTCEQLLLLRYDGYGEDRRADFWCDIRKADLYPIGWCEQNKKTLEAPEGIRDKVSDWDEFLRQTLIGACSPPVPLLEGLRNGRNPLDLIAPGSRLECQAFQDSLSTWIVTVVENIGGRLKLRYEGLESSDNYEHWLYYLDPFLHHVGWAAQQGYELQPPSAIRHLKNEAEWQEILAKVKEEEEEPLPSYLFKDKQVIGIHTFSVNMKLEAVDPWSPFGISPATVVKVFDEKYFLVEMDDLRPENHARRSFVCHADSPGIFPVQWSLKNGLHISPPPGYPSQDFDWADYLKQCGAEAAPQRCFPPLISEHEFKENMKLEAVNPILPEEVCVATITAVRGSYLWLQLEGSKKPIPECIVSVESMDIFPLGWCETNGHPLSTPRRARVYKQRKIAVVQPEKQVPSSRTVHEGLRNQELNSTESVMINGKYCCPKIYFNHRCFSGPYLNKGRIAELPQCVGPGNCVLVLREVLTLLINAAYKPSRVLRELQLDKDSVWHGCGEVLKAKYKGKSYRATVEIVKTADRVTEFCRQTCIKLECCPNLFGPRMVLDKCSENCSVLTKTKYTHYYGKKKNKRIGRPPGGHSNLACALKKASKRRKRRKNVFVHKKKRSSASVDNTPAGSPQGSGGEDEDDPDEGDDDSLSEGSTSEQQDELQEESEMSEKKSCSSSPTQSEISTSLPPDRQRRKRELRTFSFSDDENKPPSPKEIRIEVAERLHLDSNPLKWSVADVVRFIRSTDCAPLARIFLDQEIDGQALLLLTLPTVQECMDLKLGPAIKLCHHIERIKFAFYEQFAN

[9] = target: T8, Scm-like with four MBT domains protein 1 (Homo sapiens) (UniProt Q9UHJ3); experiment: Antagonist activity at SFMBT1 (unknown origin) assessed as inhibition of SFMBT1/biotinylated H3K9Me1 peptide interaction at 30 uM after 30 mins by AlphaScreen assay
T8 sequence (whole entry): T7 sequence (Q9UHJ3 whole entry)

SMILES | pIC50 [1] | pIC50 [2] | inhibition [3] | inhibition [7] [%] | pIC50 [8] | inhibition [9] | pIC50 [4] | pIC50 [5] | inhibition [6] [%]
O=C(c1ccccc1Br)N1CCC(N2CCCC2)CC1 | < 4.52 | < 4.52 | 17% | 31 | < 4.52 | inactive | 5.17 | < 4.52 | 29
O=C(c1cccc(Br)c1)N1CCCC(N2CCCC2)CC1 (stereo not given) | < 4.52 | 4.82 | 13% | – | < 4.52 | inactive | 5.17 | < 4.52 | 28
O=C(c1cccc(Br)c1)N1CCC(N2CC=CC2)CC1 | < 4.52 | < 4.52 | 18% | 24 | < 4.52 | inactive | 5.06 | < 4.52 | 28
c1ccc(C(c2ccccc2)N2CCC(N3CCCC3)CC2)cc1 | < 4.52 | < 4.52 | inactive | 36 | < 4.52 | inactive | 5.62 | < 4.52 | 17
O=C(c1ccccc1)N1CCC(N2CCCC2)CC1 | < 4.52 | < 4.52 | inactive | 22 | < 4.52 | inactive | 5.21 | < 4.52 | 40
O=C(c1cccc(Br)c1)N1CC2CCC(C1)C2N1CCCC1 (stereo not given) | < 4.52 | < 4.52 | inactive | 31 | < 4.52 | inactive | 5.44 | < 4.52 | 16

Continued, in another order:

pIC50 [1] | pIC50 [2] | inhibition [3] | inhibition [7] [%] | pIC50 [8] | inhibition [9] | SMILES | pIC50 [4] | pIC50 [5] | inhibition [6] [%]
< 4.52 | < 4.52 | 9% | 23 | < 4.52 | inactive | O=C(c1cncc(Br)c1)N1CCC(N2CCCC2)CC1 | 5.32 | < 4.52 | 41
< 4.52 | < 4.52 | inactive | 21 | < 4.52 | inactive | CNC(=O)c1cccc(C(=O)N2CCC(N3CCCC3)CC2)c1 | 5.19 | < 4.52 | 32
< 4.52 | < 4.52 | inactive | 24 | < 4.52 | inactive | O=C(c1ccc(Br)cc1)N1CCC(N2CCCC2)CC1 | 5.39 | < 4.52 | 30

From ChEMBL document CHEMBL3217594, “Structureactivity relationships of methyl-lysine reader antagonists” (Medchemcomm, 2012)
